For experiment [1], the target named is T1, GSK-3β (Homo sapiens, UniProt P49841). In words: LANCE Ultra TR-FRET GSK-3β kinase inhibition assay (ULight-GS phosphorylation). Conditions: 1 µM ATP, 50 nM ULight-GS; for IC50: dose-response 30 nM to 200 μM. Format: biochemical. How it is done: To assess if the identified GSK-3β binders were also able to affect kinase activity, the inhibitory activity of the four identified hit compounds was tested at four concentrations (1-5-50-100 μM) using the LANCE® Ultra (Perkin Elmer, Waltham, MA, USA) time-resolved fluorescence resonance energy transfer (TR-FRET) assay. The assay measures the ability of GSK-3β to phosphorylate a specific substrate, human Muscle Glycogen Synthase (ULight-GS ([…]/pSer657)), in the presence and absence of the identified ligands. […] Specifically, IC50 values were (14.81 ± 0.55) μM and (15.25 ± 1.34) μ[…] and G12, respectively (Figure 5). The GSK-3β kinase assay was run in 384 well microplates (OptiPlate^TM-384, White, Perkin Elmer) with a total reaction volume of 20 μL. The inhibitory potency against human recombinant GSK-3β was evaluated using the LANCE® Ultra (Perkin Elmer) time-resolved fluorescence resonance energy transfer (TR-FRET) by measuring the phosphorylation of the specific substrate, human Muscle Glycogen Synthase (ULight-GS ([…]/pSer657)), according to the manufacturer's instructions. […] The reaction was initiated by adding 50 nM of the substrate ULight-[…] and 1 μM ATP. The mixture was incubated for 1 h at 23 °C. Afterward, the reaction was stopped by adding 8 mM EDTA. After 5 min, the anti-phospho-GS antibody labeled with europium chelate was added. 1 h later, the kinase reaction was monitored by irradiation at 320 nm, and the fluorescence was measured at 615 and 665 nm, using EnVision 2014 Multilabel Reader (PerkinElmer). The calculated signal ratio at 665/615 nm was proportional to the extent of ULight-GS phosphorylation. The compounds were screened at four concentrations (1-5-50-100 μM). For selected compounds, dose-response curves, ranging from 30 nM up to 200 μM, were performed. Dose-response curves were run in three independent experiments, each performed in three technical replicates. IC50 values (concentrations causing half-maximal response or enzyme inhibition) were determined by non-linear regression analysis of the Log [concentration]/response curves generated with mean replicate values using a four parameter Hill equation curve fitting with GraphPad Prism 8 (GraphPad Software Inc., San Diego, CA, USA).
T1 sequence (P49841 whole entry): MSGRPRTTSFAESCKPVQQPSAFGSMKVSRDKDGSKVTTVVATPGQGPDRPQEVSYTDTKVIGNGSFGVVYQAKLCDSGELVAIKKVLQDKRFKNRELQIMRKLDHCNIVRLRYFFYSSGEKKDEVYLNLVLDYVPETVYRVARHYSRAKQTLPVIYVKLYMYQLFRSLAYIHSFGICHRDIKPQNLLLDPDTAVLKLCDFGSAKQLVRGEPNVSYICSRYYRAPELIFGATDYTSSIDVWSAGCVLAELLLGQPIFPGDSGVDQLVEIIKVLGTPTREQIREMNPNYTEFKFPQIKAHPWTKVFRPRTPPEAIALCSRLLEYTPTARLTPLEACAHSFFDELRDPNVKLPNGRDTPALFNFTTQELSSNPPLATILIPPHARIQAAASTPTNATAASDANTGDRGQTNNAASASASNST
A general note: Time-resolved FRET reads energy transfer from a long-lived donor to a nearby acceptor.

Experiment [2] has as its target T1, GSK-3β. In words: MicroScale Thermophoresis (MST) binding to fluorescently labeled GSK-3β. The arrangement: made in house; host or cells: Sf9 cells. As to conditions: preincubation with 3 mM AMP-PNP; data not shown. The method, then:
MicroScale Thermophoresis (MST) experiments were conducted in triplicate on a Monolith NT.115 Pico system (NanoTemper Technologies, Munich, Germany).
The MST technique was used both for hit binding and for affinity (kd) determination.
GSK-3β was labeled with the His-tag RED-tris-NTA label 2nd generation (Nanotemper Technologies) following Nanotemper technology protocol. The 100 nM stock labeled protein solution was used at 20 nM concentration to roughly start from 7000 fluorescence counts in each screening experiment.
GSK-3β was labelled also using RED-NHS ammine dye (Nanotemper Technologies) following the manufacturer’s protocol. The obtained ammine-labeled protein was used at 20 nM concentration to roughly start the experiments from 6000 fluorescence counts.
Binding tests were performed on eight capillaries with a constant concentration of the labeled protein (20 nM), to detect the effect induced by the compounds on the fluorescence signal (in the presence or absence of 3 mM AMP-PNP). Protein in assay buffer in the presence of 5% DMSO was the negative control.
Assay buffer: Phosphate buffer 0.1 M pH 7.2, 5 mM MgCl2, 0.001% Tween80, 0.1% PEG8000. Experiments were performed in triplicates. Data elaboration and plots were performed using MO.Control Nanotemper software.
Background: Microscale thermophoresis detects binding through changes in fluorescence in a small temperature gradient.

SMILES strings stand for the structures.

By IC50 is commonly meant the concentration that gives 50% inhibition. A lower IC50 goes with greater potency. On to `O=C(Nc1ccccn1)C1CCN(C(=O)COc2ccccc2F)C1` (stereo not shown) [ARN1484], for which it took 38.1 µM to reach half-maximal inhibition on GSK-3β [1] (IC50).
Still for that read-out and setting: next, `CN(C)S(=O)(=O)N1CC(c2nc(N)ncc2-c2ccc(F)cc2)C1` [ARN9133]: 27.2 µM.
As a reminder, the inhibition is the change of the read-out against control, counted positive when it falls. Turning to `O=C(NCCn1ncc(-c2ccncc2)c1C1CC1)c1ccccc1F` [B3], at GSK-3β [2], the “MST binding check, displacement assay” value is “maintained their ability to bind GSK-3β”. 1 µM produced 2.5 ± 0.9% inhibition against GSK-3β [1] (1 μM compound, mean ± SD). This molecule also showed an inhibition at 5 µM at GSK-3β [1] (5 μM compound, mean ± SD) of 4.9 ± 1.5%. Besides, testing at 50 µM on GSK-3β [1] (50 μM compound, mean ± SD) gave an inhibition of 27.1 ± 4.9%. Besides, on GSK-3β [1] (100 μM compound, mean ± SD), the inhibition at 100 µM turned out to be 46.6 ± 6%.

The record behind these values is publication PMC8998611, “Identification of Novel GSK-3β Hits Using Competitive Biophysical Assays” (International Journal of Molecular Sciences, 2022).
